Experimental data published in publication PMC5349910, “Discovery of BPR1K871, a quinazoline based, multi-kinase inhibitor for the treatment of AML and solid tumors: Rational design, synthesis, in vitro and in vivo evaluation” (Oncotarget, 2016).
Converted amounts (≈) assume the structure as drawn. “And” between values parts separate entries of the source, which are not always exact repeats. Equal values may be shown once. Read-outs that look alike come from different tables or passages of the source.

Legend:
[1] = system: CL-97 cells; assay: Anti-proliferative activity, CL-97; type: cell-based, human
[2] = system: U937 cells; assay: Anti-proliferative activity, U937; type: cell-based; conditions: Homo sapiens, U-937, read-out: U937 EC50
[3] = system: MV4-11 cells; assay: MTS cell viability assay, MV4-11; type: cell-based, human; conditions: read-out: MV4-11 EC50
Protocol: (§1) The MTS cell viability assay was conducted as previously described. The MOLM-13 human leukemia cell line was obtained from the German Resource Centre for Biological Material (DSMZ, Braunschweig, Germany); the MV4-11 cell line was purchased from the American Type Culture Collection (ATCC, Manassas, VA, USA). […] To determine cell viability after drug treatment, assay for MOLM-13 and MV4-11 was performed by seeding 10000 cells per well in a 96-well culture plate. […] After 16 h, cells were then treated with vehicle or various concentrations of compound in medium for 72 h. Viable cells were quantified using the MTS method (Promega, Madison, WI, USA) according to the manufacturer's recommended protocol. Results were determined by measuring the absorbance at 490 nm using a plate reader (Victor2; PerkinElmer, Shelton, CT, USA).

[4] = system: H2228 cells; assay: Anti-proliferative activity, H2228; type: cell-based; conditions: Homo sapiens
[5] = system: MOLM-13 cells; assay: MTS cell viability assay, MOLM-13; type: cell-based, human; conditions: read-out: MOLM-13 EC50
Protocol: as §1

[6] = system: RS4-11 cells; assay: Anti-proliferative activity, RS4-11; type: cell-based; conditions: Homo sapiens
[7] = system: HCT-116 cells; assay: Anti-proliferative activity, HCT-116; type: cell-based, human
[8] = system: H1975 cells; assay: Anti-proliferative activity, H1975; type: cell-based; conditions: Homo sapiens
[9] = system: K562 cells; assay: Anti-proliferative activity, K562; type: cell-based; conditions: Homo sapiens, K562, read-out: K562 EC50
[10] = system: HCC827 cells; assay: Anti-proliferative activity, HCC827; type: cell-based; conditions: Homo sapiens
[11] = biological target: T1, FLT3 (Homo sapiens, UniProt P36888); design: method as in PMID 20550212, PMID 23172777, PMID 24665000; conditions: previously reported leads 1, 2, 3; cited from earlier work
T1 construct: FLT3 kinase catalytic domain (residues Tyr567-Ser993); made in house; host or cells: Sf9 insect cells (baculovirus, pBac-PAK8-GST-FLT3-KD)
T1 sequence (P36888 567-993): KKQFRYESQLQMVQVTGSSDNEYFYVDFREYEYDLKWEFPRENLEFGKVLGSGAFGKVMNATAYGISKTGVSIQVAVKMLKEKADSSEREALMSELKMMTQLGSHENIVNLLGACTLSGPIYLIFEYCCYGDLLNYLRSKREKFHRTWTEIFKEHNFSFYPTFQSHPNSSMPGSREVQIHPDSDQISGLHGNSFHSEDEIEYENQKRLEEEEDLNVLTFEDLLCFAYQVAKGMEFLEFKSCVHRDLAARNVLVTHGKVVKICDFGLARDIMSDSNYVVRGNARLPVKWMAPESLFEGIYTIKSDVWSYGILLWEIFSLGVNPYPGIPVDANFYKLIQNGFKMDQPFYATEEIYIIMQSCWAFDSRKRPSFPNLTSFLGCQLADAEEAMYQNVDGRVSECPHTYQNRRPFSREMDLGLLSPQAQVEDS

[12] = biological target: T2, AURKA (Homo sapiens, UniProt O14965); assay: AURKA inhibition assay (Kinase-Glo); type: biochemical; conditions: for IC50: mean of at least two independent experiments, within ±15%; for selectivity for AURKA over FLT3: from enzyme IC50
T2 construct: recombinant GST-AURKA (residues Ser123-Ser401) containing the kinase domain; GST (N); made in house; host or cells: Sf9 insect cells
T2 sequence (O14965 123-401): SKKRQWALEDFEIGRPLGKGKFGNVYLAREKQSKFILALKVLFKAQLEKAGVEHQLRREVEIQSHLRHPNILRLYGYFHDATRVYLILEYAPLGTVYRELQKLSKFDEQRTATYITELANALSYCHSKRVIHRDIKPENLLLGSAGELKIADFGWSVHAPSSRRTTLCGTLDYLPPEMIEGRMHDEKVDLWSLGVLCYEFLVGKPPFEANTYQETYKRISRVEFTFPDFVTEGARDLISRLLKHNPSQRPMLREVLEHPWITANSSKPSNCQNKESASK
Protocol: AURKA assay was conducted as previously described. Briefly, the recombinant GST-AURKA (residues Ser123-Ser401) containing the kinase domain was expressed in Sf9 insect cells.
Following incubation, 50 μL Kinase-Glo Plus Reagent (Promega, Madison, WI, USA) was added, and the mixture was incubated at 25°C for 20 min.

[13] = biological target: AURKB (Homo sapiens, UniProt Q96GD4); assay: AURKB inhibition assay (Kinase-Glo); type: biochemical; design: full length His-tagged Aurora-B (residues M1∼A344); His; purchased Invitrogen PV6130; conditions: 500 nM; duplicate determination
Chain of AURKB (Q96GD4 whole entry): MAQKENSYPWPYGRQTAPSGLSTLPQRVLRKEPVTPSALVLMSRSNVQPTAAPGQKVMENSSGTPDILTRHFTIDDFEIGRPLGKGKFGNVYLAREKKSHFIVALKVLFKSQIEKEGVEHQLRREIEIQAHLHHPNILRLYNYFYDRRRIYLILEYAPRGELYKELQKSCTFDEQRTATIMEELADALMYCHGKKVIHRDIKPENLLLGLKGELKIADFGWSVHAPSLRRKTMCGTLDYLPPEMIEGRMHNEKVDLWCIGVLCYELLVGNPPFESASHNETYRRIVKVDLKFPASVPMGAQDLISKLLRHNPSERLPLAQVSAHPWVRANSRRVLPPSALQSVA
Protocol: AURKB assay was conducted as previously described. Briefly, the recombinant full length His-tagged Aurora-B (residues M1∼A344) was purchased from Invitrogen (Catalog number: PV6130). The kinase assay was carried out in 96-well plates with the tested compound in reaction solution (50 mM Tris-HCl pH 7.4, 10 mM NaCl, 10 mM MgCl2, 0.01% BSA, 5 mM ATP, 1 mM DTT and 15 mM tetra(LRRASLG) peptide, and 40 ng recombinant Aurora-B) at 30°C for 180 min.
(§2) Following incubation, 50 μL Kinase-Glo Plus Reagent (Promega, Madison, WI, USA) was added, and the mixture was incubated at 25°C for 20 min. A 70 μL aliquot of each reaction mixture was transferred to a black microliter plate, and luminescence was measured on a Wallac Vector 1420 multilabel counter (PerkinElmer, Shelton, CT, USA).

[14] = biological target: T1, FLT3; assay: FLT3 kinase inhibition assay (Kinase-Glo); type: biochemical; conditions: for IC50: mean of at least two independent experiments, within ±15%; for selectivity for FLT3 over AURKA: from enzyme IC50
Protocol: The FLT3 assay was conducted as previously described. Briefly, GST-FLT3-KD^WT containing the FLT3 kinase catalytic domain (residues Tyr567-Ser993) was expressed in Sf9 insect cells transfected with the baculovirus containing pBac-PAK8-GST-FLT3-KD plasmid.
as §2

[15] = Aqueous solubility; type: physicochemical; conditions: in water
[16] = system: Detroit 551 (human normal skin fibroblast cells); assay: MTS cell viability assay, Detroit-551; type: cell-based; conditions: 72 h
Protocol: The MTS cell viability assay was conducted as previously described. The MOLM-13 human leukemia cell line was obtained from the German Resource Centre for Biological Material (DSMZ, Braunschweig, Germany); the MV4-11 cell line was purchased from the American Type Culture Collection (ATCC, Manassas, VA, USA). Both the leukemia cell lines were maintained in RPMI 1640 medium supplemented with 10% fetal bovine serum (FBS), 10 UmL^-1 penicillin, and […] streptomycin at 37°C and 5% CO2. The Detroit-551, COLO205, and Mia-PaCa2 cell lines were purchased from the American Type Culture Collection (ATCC, Manassas, VA, USA) and cultured according to instructions of ATCC. To determine cell viability after drug treatment, assay for MOLM-13 and MV4-11 was performed by seeding 10000 cells per well in a 96-well culture plate. Detroit-551, COLO205, and Mia-PaCa2 were seeded at density of 2500, 4000, and 3750 cells per well, respectively. After 16 h, cells were then treated with vehicle or various concentrations of compound in medium for 72 h. Viable cells were quantified using the MTS method (Promega, Madison, WI, USA) according to the manufacturer's recommended protocol. Results were determined by measuring the absorbance at 490 nm using a plate reader (Victor2; PerkinElmer, Shelton, CT, USA).

[17] = system: Mia-PaCa2 cells; assay: Anti-proliferative activity, Mia-PaCa2; type: cell-based, human; conditions: Homo sapiens, MIA PaCa-2, Human Pancreatic Cancer; supplement values ± SEM
[18] = Homo sapiens, MV4-11, 72 h, MTS, 72 h, AML-FLT3-ITD (homozygous), supplement values ± SEM
[19] = Homo sapiens, MOLM-13, 72 h, MTS, 72 h, AML-FLT3-ITD (heterozygous), supplement values ± SEM

Row | Compound | EC50 [3, 18] [nM] | IC50 [12] | inhibition at 0.5 µM [13] [%] | EC50 [5, 19] [nM] | IC50 [14] [nM] | EC50 [16] [nM] | further results
1 | CCN(CCCOc1ccc2c(Nc3cc(CC(=O)Nc4cccc(F)c4)n[nH]3)ncnc2c1)CCOP(=O)(O)O [Barasertib] | – | – | – | – | – | – | EC50 ([1]; Homo sapiens, CL97, read-out: CL-97 EC50): 454 nM; EC50 [2]: > 10000 nM; EC50 ([3]; Homo sapiens, MV4-11, 72 h): 17 nM; EC50 ([4]; NCI-H2228, read-out: H2228 EC50): 340 nM; EC50 ([5]; Homo sapiens, MOLM-13, 72 h): 42 nM; EC50 ([6]; RS4-11, read-out: RS4-11 EC50): 11 nM; EC50 ([7]; Homo sapiens, HCT-116, read-out: HCT-116 EC50): 67 nM; EC50 ([8]; NCI-H1975, read-out: H1975 EC50): 390 nM; EC50 [9]: > 10000 nM; EC50 ([10]; HCC827, read-out: HCC827 EC50): 127 nM
2 | O=C(Nc1ccccc1)Nc1ccc(CCNc2ncnc3oc(-c4ccccc4)c(-c4ccccc4)c23)cc1 [Compound 1] | – | – | – | – | – | – | IC50 [11]: > 10000 nM
3 | COc1cc2ncnc(NCCc3ccc(NC(=O)Nc4ccccc4)cc3)c2cc1OC [Compound 2] | – | – | – | – | – | – | IC50 [11]: > 10000 nM
4 | COc1cc2ncnc(NCCc3cnc(NC(=O)Nc4cccc(Cl)c4)s3)c2cc1OC [Compound 4] | ~40 | 5 nM and 4.9 nM | 100 | ~40 | 127 | 9100 | EC50 ([3]; MTS, 72 h, AML-FLT3-ITD (homozygous), supplement values ± SEM): 43 nM; EC50 ([5]; MTS, 72 h, AML-FLT3-ITD (heterozygous), supplement values ± SEM): 20 nM; solubility [15]: 0.452 µg/mL (≈ 0.932 µM)
5 | O=C(Nc1cccc(Cl)c1)Nc1ncc(CCNc2ncnc3ccccc23)s1 [Compound 5] | 65 | 15 nM | 92 | 69 | 1410 | 6600 | selectivity for AURKA over FLT3 [12]: 100 fold
6 | COCCOc1cc2ncnc(NCCc3cnc(NC(=O)Nc4cccc(Cl)c4)s3)c2cc1OCCOC [Compound 6] | 102 | 6 nM | 70.4 | 90 | 98 | 3500 | –
7 | COCCOc1ccc2ncnc(NCCc3cnc(NC(=O)Nc4cccc(Cl)c4)s3)c2c1 [Compound 7] | 342 | 10 nM | 42 | 412 | 1290 | 8000 | selectivity for AURKA over FLT3 [12]: 100 fold
8 | COCCOc1ccc2c(NCCc3cnc(NC(=O)Nc4cccc(Cl)c4)s3)ncnc2c1 [Compound 8] | 9.5 | 11 nM | 85.9 | 8 | 103 | 2900 | solubility [15]: 0.107 µg/mL (≈ 0.214 µM)
9 | CN(C)CCOc1ccc2c(NCCc3cnc(NC(=O)Nc4cccc(Cl)c4)s3)ncnc2c1 [Compound 9] | 57 | 17 nM | 90.1 | 40 | 58 | 3400 | –
10 | CN(C)CCCOc1ccc2c(NCCc3cnc(NC(=O)Nc4ccccc4)s3)ncnc2c1 [Compound 11] | 21.4 | – | 75.8 | 8 | 94 | 10900 | –
11 | COc1cccc(NC(=O)Nc2ncc(CCNc3ncnc4cc(OCCCN(C)C)ccc34)s2)c1 [Compound 12] | 10.9 | 19 nM | 90 | 12.4 | 98 | 9800 | –
12 | COc1ccc(Cl)cc1NC(=O)Nc1ncc(CCNc2ncnc3cc(OCCCN(C)C)ccc23)s1 [Compound 13] | 2.1 | 464 nM | 48.6 | 6.7 | 16 | 5300 | selectivity for FLT3 over AURKA [14]: 30 fold
13 | Cc1ccc(Cl)cc1NC(=O)Nc1ncc(CCNc2ncnc3cc(OCCCN(C)C)ccc23)s1 [Compound 14] | 3.3 | 131 nM | 63 | 12.7 | 20.5 | 3800 | selectivity for FLT3 over AURKA [14]: ~8 fold
14 | CO[C@@H]1[C@H](N(C)C(=O)c2ccccc2)C[C@H]2O[C@]1(C)n1c3ccccc3c3c4c(c5c6ccccc6n2c5c31)C(=O)NC4 [PKC412] | – | – | – | – | – | – | EC50 ([10]; HCC827, NSCLC-EGFR L858R, supplement values ± SEM, read-out: HCC827 EC50): 687 nM
15 | CNC(=O)c1cc(Oc2ccc(NC(=O)Nc3ccc(Cl)c(C(F)(F)F)c3)cc2)ccn1 [Sorafenib] | – | – | – | – | – | – | EC50 ([1]; CL97, Human Lung Cancer, supplement values ± SEM, read-out: CL-97 EC50): 7050 nM; EC50 ([4]; NCI-H2228, NSCLC-ALK, supplement values ± SEM, read-out: H2228 EC50): 7970 nM; EC50 ([6]; RS4-11, ALL-wt-FLT3 (homozygous), supplement values ± SEM, read-out: RS4-11 EC50): 9300 nM; EC50 ([7]; HCT-116, Human Colon Cancer, supplement values ± SEM, read-out: HCT-116 EC50): 8800 nM; EC50 ([8]; NCI-H1975, NSCLC-EGFR LR/TM, supplement values ± SEM, read-out: H1975 EC50): 7010 nM; EC50 [17]: 7790 nM
